In EP3409761B1, “CULTURE MEDIUM COMPOSITION, AND METHOD FOR CULTURING CELL OR TISSUE USING SAID COMPOSITION” (Nissan Chemical Corporation, priority 2012, dated 2014):
Starred links: 1 amine or outer side, 2 acyl side, 3 side chain; linkers in the order of their positions; H or OH if unused. Positions of bridges follow the written chain, without caps; N, C: chain ends. Non-standard residues stand in square brackets, D forms with d. Residues, ends and D or L forms follow the SMILES beside them. Chains are numbered I, II in the order given. Actinocin(9to1) = Cc1c2oc3c(C)ccc(C(=O)[*:1])c3nc-2c(C(=O)[*:2])c(N)c1=O; NMeV = CN[C@H](C(=O)O)C(C)C; Sar = CNCC(=O)O

Experiments:
Format in all cases: cell-based
[1] = system: human cervical cancer cell line HeLa; assay: Comparison with single layer culture method using agent for inducing apoptosis; conditions: day 4
Description: This aqueous solution was sterilized at 121°C for 20 min in an autoclave. […] Each plate was cultured by being stood still in a CO2 incubator (37°C, 5% CO2). […] To the culture medium on day 4 was added an ATP reagent (150 µL) (CellTiter-Glo (registered trade mark) Luminescent Cell Viability Assay, manufactured by Promega) to give a suspension, which was stood for about 10 min at room temperature, and the luminescence intensity (RLU value) was measured by FlexStation3 (manufactured by Molecular Devices), and the number of viable cells was measured by subtracting the luminescence value of the medium alone. For WST-8 measurement, a WST-8 solution (manufactured by DOJINDO Laboratories, 15 µL) was added, the mixture was incubated at 37°C for 100 min, the absorbance at 450 nm was measured by an absorbance spectrometer (manufactured by Molecular Devices, SPECTRA MAX 190), and the number of viable cells was measured by subtracting the absorbance of the medium alone.

[2] = system: human cervical cancer cell line HeLa; assay: Cell proliferation test using various anticancer drugs; conditions: DAG 0.030% medium; for cell density: 5 days later
Description: This aqueous solution was sterilized at 121°C for 20 min in an autoclave. […] The anticancer drug used was Adriamycin (manufactured by WAKO), Paclitaxel (manufactured by WAKO) or Mitomycin C (manufactured by WAKO).
Successively, this plate was cultured by being stood still in a CO2 incubator (37°C, 5% CO2) for 7 days. After culturing for 3, 5, 7 days, to the culture medium was added a WST-8 solution (manufactured by DOJINDO Laboratories, 20 µL), and the mixture was incubated at 37°C for 100 min. The absorbance at 450 nm was measured by an absorbance spectrometer (manufactured by Molecular Devices, SPECTRA MAX 190), and the number of viable cells was measured by subtracting the absorbance of the medium alone. The culture medium containing the cells after 5 days of culture was stirred with a pipette and the obtained stirred solution (20 µL) was mixed with Trypan Blue stain 0.4% (manufactured by Invitrogen, 20 µL) and the cell density was measured under a microscope.

[3] = system: human cervical cancer cell line HeLa; assay: Comparison with single layer culture method in cell proliferation test using anticancer drug; conditions: day 4
Description: This aqueous solution was sterilized at 121°C for 20 min in an autoclave. […] Each plate was cultured by being stood still in a CO2 incubator (37°C, 5% CO2). […] The anticancer drug used was Adriamycin (manufactured by WAKO), Paclitaxel (manufactured by WAKO) or Mitomycin C (manufactured by WAKO). To the culture medium on day 4 was added an ATP reagent (150 µL) (CellTiter-Glo (registered trade mark) Luminescent Cell Viability Assay, manufactured by Promega) to give a suspension, which was stood for about 10 min at room temperature, and the luminescence intensity (RLU value) was measured by FlexStation3 (manufactured by Molecular Devices), and the number of viable cells was measured by subtracting the luminescence value of the medium alone. For WST-8 measurement, a WST-8 solution (manufactured by DOJINDO Laboratories, 15 µL) was added, the mixture was incubated at 37°C for 100 min, the absorbance at 450 nm was measured by an absorbance spectrometer (manufactured by Molecular Devices, SPECTRA MAX 190), and the number of viable cells was measured by subtracting the absorbance of the medium alone.

[4] = agent 10 µM, deacylated gellan gum addition group (0.015%)
[5] = agent 10 µM, single layer culture group
[6] = agent 100 µM, deacylated gellan gum addition group (0.015%)
[7] = agent 100 µM, single layer culture group
[8] = drug 0.001 µM, deacylated gellan gum addition group (0.015%)
[9] = drug 0.001 µM, single layer culture group
[10] = drug 0.01 µM, deacylated gellan gum addition group (0.015%)
[11] = drug 0.01 µM, single layer culture group
[12] = drug 0.1 µM, deacylated gellan gum addition group (0.015%)
[13] = drug 0.1 µM, single layer culture group
[14] = drug 1 µM, deacylated gellan gum addition group (0.015%)
[15] = drug 1 µM, single layer culture group
[16] = agent 1 µM, deacylated gellan gum addition group (0.015%)
[17] = agent 1 µM, single layer culture group

Structure (SMILES): C[C@@H]1C[C@@H]([C@H](O)CC2CC(=O)NC(=O)C2)C(=O)[C@@H](C)C1 [Cycloheximide]
- % Control value of the RLU value (ATP measurement) [1, 4]: 9 % Control
- % Control value of the absorbance at 450 nm (WST-8 measurement) [1, 4]: 4 % Control
- % Control value of the RLU value (ATP measurement) [1, 5]: 29 % Control
- % Control value of the absorbance at 450 nm (WST-8 measurement) [1, 5]: 21 % Control
- % Control value of the RLU value (ATP measurement) [1, 6]: 4 % Control
- % Control value of the absorbance at 450 nm (WST-8 measurement) [1, 6]: 1 % Control
- % Control value of the RLU value (ATP measurement) [1, 7]: 9 % Control
- % Control value of the absorbance at 450 nm (WST-8 measurement) [1, 7]: 7 % Control

Structure (SMILES): COc1cccc2c1C(=O)c1c(O)c3c(c(O)c1C2=O)C[C@@](O)(C(=O)CO)C[C@@H]3O[C@H]1C[C@H](N)[C@H](O)[C@H](C)O1 [Adriamycin]
- cell density ([2]; drug 0.001 µM): 5.1 10^4 cells/mL
- cell number (absorbance at 450 nm, WST-8) ([2]; drug 0.001 µM, day 3): 0.237
- cell number (absorbance at 450 nm, WST-8) ([2]; drug 0.001 µM, day 5): 0.246
- cell number (absorbance at 450 nm, WST-8) ([2]; drug 0.001 µM, day 7): 0.184
- cell density ([2]; drug 0.01 µM): 2.6 10^4 cells/mL
- cell number (absorbance at 450 nm, WST-8) ([2]; drug 0.01 µM, day 3): 0.230
- cell number (absorbance at 450 nm, WST-8) ([2]; drug 0.01 µM, day 5): 0.098
- cell number (absorbance at 450 nm, WST-8) ([2]; drug 0.01 µM, day 7): 0.068
- cell density ([2]; drug 0.1 µM): 1.7 10^4 cells/mL
- cell number (absorbance at 450 nm, WST-8) ([2]; drug 0.1 µM, day 3): 0.037
- cell number (absorbance at 450 nm, WST-8) ([2]; drug 0.1 µM, day 5): 0.005
- cell number (absorbance at 450 nm, WST-8) ([2]; drug 0.1 µM, day 7): < 0
- cell density ([2]; drug 1 µM): 0.6 10^4 cells/mL
- cell number (absorbance at 450 nm, WST-8) ([2]; drug 1 µM, day 3): < 0
- cell number (absorbance at 450 nm, WST-8) ([2]; drug 1 µM, day 5): < 0
- cell number (absorbance at 450 nm, WST-8) ([2]; drug 1 µM, day 7): < 0
- % Control value of the RLU value (ATP measurement) [3, 8]: 96 % Control
- % Control value of the absorbance at 450 nm (WST-8 measurement) [3, 8]: 105 % Control
- % Control value of the RLU value (ATP measurement) [3, 9]: 97 % Control
- % Control value of the absorbance at 450 nm (WST-8 measurement) [3, 9]: 109 % Control
- % Control value of the RLU value (ATP measurement) [3, 10]: 81 % Control
- % Control value of the absorbance at 450 nm (WST-8 measurement) [3, 10]: 86 % Control
- % Control value of the RLU value (ATP measurement) [3, 11]: 97 % Control
- % Control value of the absorbance at 450 nm (WST-8 measurement) [3, 11]: 107 % Control
- % Control value of the RLU value (ATP measurement) [3, 12]: 41 % Control
- % Control value of the absorbance at 450 nm (WST-8 measurement) [3, 12]: 36 % Control
- % Control value of the RLU value (ATP measurement) [3, 13]: 65 % Control
- % Control value of the absorbance at 450 nm (WST-8 measurement) [3, 13]: 74 % Control
- % Control value of the RLU value (ATP measurement) [3, 14]: 15 % Control
- % Control value of the absorbance at 450 nm (WST-8 measurement) [3, 14]: 4 % Control
- % Control value of the RLU value (ATP measurement) [3, 15]: 5 % Control
- % Control value of the absorbance at 450 nm (WST-8 measurement) [3, 15]: 6 % Control
- % Control value of the RLU value (ATP measurement) [1, 16]: 5 % Control
- % Control value of the absorbance at 450 nm (WST-8 measurement) [1, 16]: 3 % Control
- % Control value of the RLU value (ATP measurement) [1, 17]: 3 % Control
- % Control value of the absorbance at 450 nm (WST-8 measurement) [1, 17]: 3 % Control

Structure (SMILES): Cc1c2oc3c(C)ccc(C(=O)N[C@@H]4C(=O)N[C@H](C(C)C)C(=O)N5CCC[C@H]5C(=O)N(C)CC(=O)N(C)[C@@H](C(C)C)C(=O)O[C@@H]4C)c3nc-2c(C(=O)N[C@@H]2C(=O)N[C@H](C(C)C)C(=O)N3CCC[C@H]3C(=O)N(C)CC(=O)N(C)[C@@H](C(C)C)C(=O)O[C@@H]2C)c(N)c1=O [Actinomycin D] (I: T[dV]P[Sar][NMeV] / II: T[dV]P[Sar][NMeV]; ester I:1-I:C, II:1-II:C; linker I:N-II:N via Actinocin(9to1))
- % Control value of the RLU value (ATP measurement) [1, 16]: 4 % Control
- % Control value of the absorbance at 450 nm (WST-8 measurement) [1, 16]: 3 % Control
- % Control value of the RLU value (ATP measurement) [1, 17]: 2 % Control
- % Control value of the absorbance at 450 nm (WST-8 measurement) [1, 17]: 2 % Control
- % Control value of the RLU value (ATP measurement) [1, 4]: 6 % Control
- % Control value of the absorbance at 450 nm (WST-8 measurement) [1, 4]: 12 % Control
- % Control value of the RLU value (ATP measurement) [1, 5]: 2 % Control
- % Control value of the absorbance at 450 nm (WST-8 measurement) [1, 5]: 4 % Control
